Values after ≈ are worked out from the molar mass of the structure shown. Where two headings read alike, the source gives them in different places. Blank lines part the entries; values can stand above or below the molecule they belong to.
How the values were obtained:
[1] = clinical; details: human, in vivo
Procedure: The final treatment administered was 3.8 mg on a 10 cm^2 patch using an applicator with 0.52 Joule of application energy in the intracutaneous microneedle system described herein. The products tested were:
(§1) The array was applied to the center of a 5 cm^2 tan adhesive backing to form the patch. The patch was attached to the interior of a white to off-white polycarbonate ring co-molded with a desiccant, and this patch assembly was packaged in a foil pouch.
as §1
The array was applied to the center of a 10 cm^2 tan adhesive backing to form the patch. The patch was attached to the interior of a white to off-white polycarbonate ring co-molded with a desiccant, and this patch assembly was packaged in a foil pouch.
This was a single-center, open-label, randomized five-way crossover study (Part 1) followed by a sequential study of two additional treatments (Parts 2 and 3). After obtaining informed consent and establishing eligibility, each subject received each of the seven study treatments once, followed by in-clinic monitoring and extensive blood sample collection for pharmacokinetic analysis. […] Plasma samples from the initial dosing days were sent to the analytical laboratory for analysis, and tolerability for each of the dose levels was summarized. […] During Part 3, subjects received a single 3.8 mg patch (applied with a 0.52 J applicator) and also completed identical procedures to the previous dosing days. After completion of the seven dosing days, subjects were assessed one final time and dismissed from the study.
Twenty subjects were enrolled in the study, 10 males and 10 females. The subjects mean age was 29 years±3.5 years with a mean BMI of 24.4±3.5.
PK parameters were summarized by treatment group using descriptive statistics (arithmetic means, standard deviations, coefficients of variation, sample size, minimum, maximum, and median).
Graphs of apparent dose linearity and proportionality of PK parameters (AUCt, AUCinf and Cmax) were compiled.

[2] = cited from earlier work; for AUC0-last: Seaber1997
[3] = test system: 5HT1B/1D; details: relative to zolmitriptan; cited from earlier work
[4] = Solubility of zolmitriptan in 0.1 M acids at 2-8° C.; type: physicochemical; details: de-ionized water
From the text: The suspension was then centrifuged.

[5] = In vivo pig study: zolmitriptan distribution in skin by quantitative mass-spectrometry imaging; details: swine skin after 1-hour ADAM wear
From the text: Evidence of zolmitriptan diffusion within the skin was obtained by quantitative mass-specetrometry imaging. Analyses of the surface area of the stratum corneum, epidermis, and dermis indicate that the largest amount of zolmitriptan localized to the dermis.

Structure (SMILES): CN(C)CCc1c[nH]c2ccc(C[C@H]3COC(=O)N3)cc12 [Oral Zolmi]
- AUC0-last Dose ([1]; po, 2.5 mg): 8.6 ng·h/mL/mg

Structure (SMILES): CNCCc1c[nH]c2ccc(C[C@H]3COC(=O)N3)cc12 [N-desmethyl zolmitriptan]
- metabolite concentrations relative to zolmitriptan ([2]; after zolmitriptan administration): about two-thirds
- 5HT1B/1D potency, times that of the parent [3]: 2 to 6 times

Structure (SMILES): CNS(=O)(=O)Cc1ccc2[nH]cc(CCN(C)C)c2c1 [Sumatriptan]
- Tmax ([2]; marketed dosage form): about 2 hours
- bioavailability ([2]; oral administration): about 15%

Structure (SMILES): CN(C)CCc1c[nH]c2ccc(C[C@H]3COC(=O)N3)cc12 [Zolmitriptan 10 mg oral, zolmitriptan]
- AUC0-last ([2]; females (F)): 108.6 ng·h/mL
- AUC0-last ([2]; males (M)): 84.4 ng·h/mL

Second part, the molecule after the results:

- Solubility [4]: 1300 µg/mL (≈ 4.52 mM)
- Percentage of Total Zolmitriptan ([5]; Dermis/hypodermis): 95.5
- Percentage of Total Zolmitriptan ([5]; Epidermis): 2.7
- Percentage of Total Zolmitriptan ([5]; Stratum corneum): 1.8
Structure (SMILES): CN(C)CCc1c[nH]c2ccc(C[C@H]3COC(=O)N3)cc12 [Zolmitriptan, zolmitriptan]

- t1/2 ([1]; sc): 1.14 H
Structure (SMILES): CNS(=O)(=O)Cc1ccc2[nH]cc(CCN(C)C)c2c1 [Sumatriptan SC]

- AUC0-last Dose ([1]; sc, 6 mg): 16.8 ng·h/mL/mg
Structure (SMILES): CNS(=O)(=O)Cc1ccc2[nH]cc(CCN(C)C)c2c1 [SC Suma]

- AUCinf ([1]; both, po, 2.5 mg): 27.19 ng · H/mL
- Cmax ([1]; both, po, 2.5 mg): 3.77 ng/mL
- Tmax ([1]; both, po, 2.5 mg): 1.79 h
- AUC(0-t) ([1]; both, po, 2.5 mg, AUC2 hrs): 4.72 ng·h/mL
- AUC(0-t) ([1]; both, po, 2.5 mg, AUCt): 22.2 ng·h/mL
Structure (SMILES): CN(C)CCc1c[nH]c2ccc(C[C@H]3COC(=O)N3)cc12 [Zolmitriptan oral tablet]

From patent publication US20230255881A1, “METHOD OF RAPIDLY ACHIEVING THERAPEUTIC CONCENTRATIONS OF TRIPTANS FOR TREATMENT OF MIGRAINES AND CLUSTER HEADACHES” (Emergex USA Corporation, priority 2017, published 2023)
